According to ChEMBL document CHEMBL5154810, “Development of Potent Immune Modulators Targeting Stimulator of Interferon Genes Receptor” (J Med Chem, 2022):
Activity calls are given as the source filed them. The rule behind the calls is not given here.

Columns and labels:
[1] = Cytotoxicity against human THP1-Dual KO-STING cells assessed as residual cell viability by CellTiter96 Aqueous One Solution Cell Proliferation Assay; assay type: functional; set-up: concentration or dose not given beside the values
[2] = Activation of IRF-mediated immune response in human THP1-Dual KO-STING cells co-expressing ISRE reporter assessed as normalized luciferase gene expression by measuring relative luciferase units at 50 uM incubated for 24 hrs by QUANTI Luc based microplate reader method; assay type: functional
THP1-Dual = test: Cytotoxicity against human wild type THP1-Dual cells assessed as residual cell viability by CellTiter96 Aqueous One Solution Cell Proliferation Assay; assay type: functional; set-up: concentration or dose not given beside the values
[3] = biological target: Stimulator of interferon genes protein (Homo sapiens, UniProt Q86WV6); conditions: THP1-Dual, filed as activator, dose 50.0 µM, time 24.0 hrs
Sequence of Stimulator of interferon genes protein (Q86WV6 whole entry): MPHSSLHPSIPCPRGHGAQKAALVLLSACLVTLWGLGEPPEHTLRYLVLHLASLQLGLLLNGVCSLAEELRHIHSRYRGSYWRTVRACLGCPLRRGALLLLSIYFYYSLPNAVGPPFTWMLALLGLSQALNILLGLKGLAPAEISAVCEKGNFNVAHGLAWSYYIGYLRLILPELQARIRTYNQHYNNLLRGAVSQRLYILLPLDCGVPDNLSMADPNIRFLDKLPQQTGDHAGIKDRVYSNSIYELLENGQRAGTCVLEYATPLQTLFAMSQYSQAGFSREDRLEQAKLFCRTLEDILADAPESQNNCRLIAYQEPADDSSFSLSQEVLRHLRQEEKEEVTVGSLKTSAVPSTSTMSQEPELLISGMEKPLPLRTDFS

[4] = AUClast in BALB/c mouse at 3 mg/kg, iv by LC-MS/MS analysis; assay type: ADME, organism-based; set-up: time 0 - last, dose 3 mg/kg, route iv; conditions: in vivo
[5] = Terminal half life in BALB/c mouse at 3 mg/kg, iv by LC-MS/MS analysis; assay type: ADME, organism-based; conditions: in vivo, read-out: beta t1/2 (converted)
[6] = AUCinfinity in BALB/c mouse at 3 mg/kg, iv by LC-MS/MS analysis; assay type: ADME, organism-based; set-up: time infinity, dose 3 mg/kg, route iv; conditions: BALB/c, in vivo
[7] = Clearance in BALB/c mouse at 3 mg/kg, iv by LC-MS/MS analysis; assay type: ADME, organism-based; conditions: BALB/c, in vivo
[8] = Volume of distribution at steady state in BALB/c mouse at 3 mg/kg, iv by LC-MS/MS analysis; assay type: ADME, organism-based; conditions: in vivo, read-out: Vdss
[9] = Induction of IP-10 secretion in human THP-1 cells assessed as maximal efficacy by ELISA relative to control; assay type: functional
RAW264.7 = test: Activation of NF-kappaB mediated pro-inflammatory effector proteins in mouse RAW264.7 cells at 100 to 500 nM for incubated for 3 hrs by western blot analysis; assay type: cell-based; conditions: filed as activator, dose 100-500 nM
[10] = biological target: Nuclear factor NF-kappa-B complex (Homo sapiens) (UniProt Q00653+P19838+Q04206); test: Activation of NF-kappaB mediated pro-inflammatory effector proteins in human THP-1 cells at 2 to 10 nM incubated for 4 hrs by western blot analysis; assay type: cell-based; conditions: filed as activator, dose 2-10 nM
Sequence of Nuclear factor NF-kappa-B complex (Homo sapiens) (P19838 whole entry, looked up): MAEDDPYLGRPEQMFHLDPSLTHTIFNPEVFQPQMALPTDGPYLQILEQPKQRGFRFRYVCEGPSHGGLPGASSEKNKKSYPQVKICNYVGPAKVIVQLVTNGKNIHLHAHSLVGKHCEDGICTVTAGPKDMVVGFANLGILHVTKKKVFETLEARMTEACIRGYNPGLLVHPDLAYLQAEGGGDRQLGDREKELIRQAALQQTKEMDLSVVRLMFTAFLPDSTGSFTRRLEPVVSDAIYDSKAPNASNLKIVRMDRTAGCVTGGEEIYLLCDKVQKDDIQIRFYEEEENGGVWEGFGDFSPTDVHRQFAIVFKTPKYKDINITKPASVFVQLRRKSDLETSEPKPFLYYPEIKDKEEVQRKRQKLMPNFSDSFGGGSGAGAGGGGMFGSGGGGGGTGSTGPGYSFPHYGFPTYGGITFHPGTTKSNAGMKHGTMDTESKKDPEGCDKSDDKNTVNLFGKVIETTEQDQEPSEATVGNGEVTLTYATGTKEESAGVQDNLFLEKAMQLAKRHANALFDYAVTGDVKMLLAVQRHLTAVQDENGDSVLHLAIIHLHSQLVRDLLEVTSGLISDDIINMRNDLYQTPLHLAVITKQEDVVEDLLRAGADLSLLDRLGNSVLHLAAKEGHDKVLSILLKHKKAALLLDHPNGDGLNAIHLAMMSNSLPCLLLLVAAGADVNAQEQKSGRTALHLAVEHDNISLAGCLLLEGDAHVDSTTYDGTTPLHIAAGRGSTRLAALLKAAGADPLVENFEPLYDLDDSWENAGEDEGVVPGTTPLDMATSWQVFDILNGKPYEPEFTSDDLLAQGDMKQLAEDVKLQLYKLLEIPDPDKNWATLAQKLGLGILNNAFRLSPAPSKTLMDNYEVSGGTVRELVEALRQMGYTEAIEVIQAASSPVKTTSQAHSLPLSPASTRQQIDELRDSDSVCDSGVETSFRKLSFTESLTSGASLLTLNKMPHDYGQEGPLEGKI
Sequence of Nuclear factor NF-kappa-B complex (Homo sapiens) (Q00653 whole entry, looked up): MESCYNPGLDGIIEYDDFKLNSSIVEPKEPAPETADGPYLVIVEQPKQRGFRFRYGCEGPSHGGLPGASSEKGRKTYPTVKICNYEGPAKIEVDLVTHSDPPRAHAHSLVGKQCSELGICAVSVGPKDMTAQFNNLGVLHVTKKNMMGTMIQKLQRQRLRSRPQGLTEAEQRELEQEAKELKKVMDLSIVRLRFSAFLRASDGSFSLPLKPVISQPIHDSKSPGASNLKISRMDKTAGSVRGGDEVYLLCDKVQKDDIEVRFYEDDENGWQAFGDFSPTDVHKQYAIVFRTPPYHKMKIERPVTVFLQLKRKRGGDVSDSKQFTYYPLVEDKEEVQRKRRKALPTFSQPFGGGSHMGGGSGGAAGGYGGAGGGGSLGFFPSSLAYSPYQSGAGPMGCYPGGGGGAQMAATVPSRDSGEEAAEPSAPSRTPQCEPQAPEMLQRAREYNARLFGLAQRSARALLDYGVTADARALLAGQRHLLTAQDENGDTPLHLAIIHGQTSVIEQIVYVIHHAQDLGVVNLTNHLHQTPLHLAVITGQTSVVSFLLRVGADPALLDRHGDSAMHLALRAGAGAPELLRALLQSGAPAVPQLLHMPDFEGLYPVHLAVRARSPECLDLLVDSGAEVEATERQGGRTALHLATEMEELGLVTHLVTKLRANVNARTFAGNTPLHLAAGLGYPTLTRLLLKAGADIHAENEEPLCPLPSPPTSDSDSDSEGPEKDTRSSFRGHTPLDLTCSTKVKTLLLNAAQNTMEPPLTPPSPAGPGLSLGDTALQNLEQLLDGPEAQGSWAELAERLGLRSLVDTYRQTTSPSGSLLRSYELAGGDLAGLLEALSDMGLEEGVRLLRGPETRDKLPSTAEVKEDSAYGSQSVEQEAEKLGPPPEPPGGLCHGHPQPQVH
Sequence of Nuclear factor NF-kappa-B complex (Homo sapiens) (Q04206 whole entry, looked up): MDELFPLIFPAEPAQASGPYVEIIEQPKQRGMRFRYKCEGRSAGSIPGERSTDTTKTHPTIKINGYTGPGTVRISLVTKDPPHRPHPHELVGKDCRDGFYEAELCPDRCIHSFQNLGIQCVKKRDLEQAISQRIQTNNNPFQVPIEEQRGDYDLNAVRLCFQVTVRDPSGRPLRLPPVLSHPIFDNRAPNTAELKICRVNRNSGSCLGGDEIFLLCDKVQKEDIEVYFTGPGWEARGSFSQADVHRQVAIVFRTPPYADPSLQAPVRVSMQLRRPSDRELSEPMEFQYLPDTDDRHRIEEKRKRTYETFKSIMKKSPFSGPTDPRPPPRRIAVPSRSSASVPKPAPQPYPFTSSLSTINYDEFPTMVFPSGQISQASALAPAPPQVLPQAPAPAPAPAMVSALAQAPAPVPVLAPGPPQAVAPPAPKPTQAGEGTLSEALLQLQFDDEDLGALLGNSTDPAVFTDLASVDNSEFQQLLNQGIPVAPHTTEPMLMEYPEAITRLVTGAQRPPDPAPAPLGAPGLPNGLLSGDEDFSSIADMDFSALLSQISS

CCn1nc(C)cc1C(=O)Nc1nc2cc(C(N)=O)ccc2n1CCCCNC(=O)c1ccn[nH]1
Activity [1]: 109.2% | RLU [2]: 1.3 | Activity (THP1-Dual): 99.9% | RLU [3]: 0.9

CCn1nc(C)cc1C(=O)NCCCCCn1c(NC(=O)c2cc(C)nn2CC)nc2cc(C(N)=O)ccc21
Activity [1]: 77.5% | RLU [2]: 0.3 | Activity (THP1-Dual): 44.9% | RLU [3]: 1

Cc1cc(C(=O)Nc2nc3cc(C(N)=O)ccc3n2CCCCNC(=O)OC(C)(C)C)n(C(C)C)n1
Activity [1]: 100.1% | RLU [2]: 0.8 | Activity (THP1-Dual): 97.1% | RLU [3]: 0.9

NC(=O)c1ccc2c(c1)nc(NC(=O)c1n[nH]c3ccccc13)n2C[C@@H](O)c1ccccc1
Activity [1]: 100.9% | RLU [2]: 1.3 | Activity (THP1-Dual): 91.2% | RLU [3]: 0.9

Nc1nc2c(ncn2[C@@H]2O[C@@H]3COP(=O)(O)O[C@H]4[C@@H](O)[C@H](n5cnc6c(N)ncnc65)O[C@@H]4COP(=O)(O)O[C@@H]2[C@@H]3O)c(=O)[nH]1
Activity (THP1-Dual): 76.5%

CC(C)(C)OC(=O)NCCCCn1c(NC(=O)c2cc3ccccc3o2)nc2cc(C(N)=O)ccc21
Activity [1]: 98% | RLU [2]: 0.7 | Activity (THP1-Dual): 92.7% | RLU [3]: 0.8

CCn1nc(C)cc1C(=O)Nc1nc2cc(C(N)=O)cc(OC)c2n1C/C=C/CNC(=O)OC(C)(C)C
Activity [1]: 87.7% | RLU [2]: 0.7 | Activity (THP1-Dual): 89.5% | RLU [3]: 13.7

CCn1nc(C)cc1C(=O)Nc1nc2cc(C(N)=O)ccc2n1CCCNC(=O)OC(C)(C)C
Activity [1]: 88% | RLU [2]: 0.9 | Activity (THP1-Dual): 90.2% | RLU [3]: 20

CCn1nc(C(F)(F)F)cc1C(=O)Nc1nc2cc(C(N)=O)ccc2n1C[C@@H](O)c1ccccc1
Activity [1]: 91% | RLU [2]: 1 | Activity (THP1-Dual): 88.1% | RLU [3]: 0.7

CCn1nc(C)cc1C(=O)NCCCCn1c(NC(=O)c2cc(C)nn2CC)nc2cc(C(N)=O)ccc21
Activity [1]: 88.2% | AUC(0-t) [4]: 310 ng·h/mL | half-life [5]: 35.4 min | RLU [2]: 0.9 | AUC(0-inf) [6]: 320 ng·h/mL | clearance [7]: 158 mL/min/kg | Activity (THP1-Dual): 68.2% | RLU [3]: 104 | Vd [8]: 1.8 L/kg

CCn1nc(C(F)(F)F)cc1C(=O)Nc1nc2cc(C(N)=O)ccc2n1CCCCNC(=O)OC(C)(C)C
Activity [1]: 89.9% | RLU [2]: 1.1 | Activity (THP1-Dual): 99.4% | RLU [3]: 0.8

CCn1nc(C)cc1C(=O)Nc1nc2cc(C(N)=O)ccc2n1CCCCNC(=O)c1cc(C)nn1C
Activity [1]: 105.4% | RLU [2]: 0.9 | Activity (THP1-Dual): 66% | RLU [3]: 93.3

CCn1nc(C)cc1C(=O)Nc1nc2cc(C(N)=O)ccc2n1CCCCNC(=O)c1cccnc1
Activity [1]: 96.4% | RLU [2]: 1.1 | Activity (THP1-Dual): 98.9% | RLU [3]: 1

NC(=O)c1ccc2c(c1)nc(NC(=O)c1ccoc1)n2C[C@@H](O)c1ccccc1
Activity [1]: 94% | RLU [2]: 0.9 | Activity (THP1-Dual): 88% | RLU [3]: 0.5

Cn1cc(C(=O)Nc2nc3cc(C(N)=O)ccc3n2CCCCn2c(NC(=O)c3cn(C)nc3C(F)(F)F)nc3cc(C(N)=O)ccc32)c(C(F)(F)F)n1
Activity [1]: 115% | RLU [2]: 0.8 | Activity (THP1-Dual): 96.7% | RLU [3]: 7.7

C=CCn1nc(C(=O)Nc2nc3cc(C(N)=O)ccc3n2CCCCNC(=O)OC(C)(C)C)cc1C
Activity [1]: 103.9% | RLU [2]: 1.4 | Activity (THP1-Dual): 96.1% | RLU [3]: 0.9

CCn1nc(C)cc1C(=O)Nc1nc2cc(C(N)=O)ccc2n1CCCCNC(=O)OC(C)(C)C
Activity [1]: 78.4% | RLU [2]: 0.6 | Activity (THP1-Dual): 97.6% | RLU [3]: 21

NC(=O)c1ccc2c(c1)nc(NC(=O)c1cc3ccccc3o1)n2CCCCn1c(NC(=O)c2cc3ccccc3o2)nc2cc(C(N)=O)ccc21
Activity [1]: 96.8% | RLU [2]: 1.3 | Activity (THP1-Dual): 103% | RLU [3]: 0.9

CC(C)(C)OC(=O)NCCCCn1c(NC(=O)c2ccoc2)nc2cc(C(N)=O)ccc21
Activity [1]: 96.2% | RLU [2]: 1 | Activity (THP1-Dual): 90.3% | RLU [3]: 0.9

CCn1nc(C)cc1C(=O)/N=c1\[nH]c2cc(C(N)=O)cc(OC)c2n1C/C=C/Cn1/c(=N/C(=O)c2cc(C)nn2CC)[nH]c2cc(C(N)=O)cc(OCCCN3CCOCC3)c21
Emax [9]: 136% | RLU [2]: 0.7 | Activity (RAW264.7): Active | Activity (THP1-Dual): 83.1% | Activity [10]: Active | RLU [3]: 68.6

CCn1nc(C)cc1C(=O)Nc1nc2cc(C(=O)O)ccc2n1CCCCn1c(NC(=O)c2cc(C)nn2CC)nc2cc(C(=O)O)ccc21
Activity [1]: 101.6% | RLU [2]: 0.6 | Activity (THP1-Dual): 113.1% | RLU [3]: 0.6

CCn1nc(C)cc1C(=O)Nc1nc2cc(C(=O)OC)ccc2n1CCCCn1c(NC(=O)c2cc(C)nn2CC)nc2cc(C(=O)OC)ccc21
Activity [1]: 117.9% | RLU [2]: 0.8 | Activity (THP1-Dual): 122% | RLU [3]: 0.8

Cc1cc(C(=O)Nc2nc3cc(C(N)=O)ccc3n2CCCCNC(=O)OC(C)(C)C)n(C)n1
Activity [1]: 108.2% | RLU [2]: 1.2 | Activity (THP1-Dual): 96.7% | RLU [3]: 0.9

CCn1nc(C)cc1C(=O)Nc1nc2cc(C(N)=O)cc(OC)c2n1C/C=C/Cn1c(NC(=O)c2cc(C)nn2CC)nc2cc(C(N)=O)cc(OCCCN)c21
RLU [2]: 0.7 | RLU [3]: 101

CCn1nc(C)cc1C(=O)Nc1nc2cc(C(N)=O)ccc2n1CCCCNC(C)=O
Activity [1]: 74.9% | RLU [2]: 0.3 | Activity (THP1-Dual): 40.8% | RLU [3]: 0.4

CCn1nc(C)cc1C(=O)/N=c1\[nH]c2cc(C(N)=O)ccc2n1C[C@@H](O)c1ccccc1
Activity [1]: 76.9% | RLU [2]: 0.7 | Activity (THP1-Dual): 96% | RLU [3]: 2

CCn1nc(C)cc1C(=O)NCCCn1c(NC(=O)c2cc(C)nn2CC)nc2cc(C(N)=O)ccc21
Activity [1]: 82.3% | RLU [2]: 0.4 | Activity (THP1-Dual): 40.6% | RLU [3]: 13.7

Cn1cc(C(=O)Nc2nc3cc(C(N)=O)ccc3n2CCCCNC(=O)OC(C)(C)C)c(C(F)(F)F)n1
Activity [1]: 90.6% | RLU [2]: 0.9 | Activity (THP1-Dual): 91.9% | RLU [3]: 0.8

C=CCn1nc(C(=O)Nc2nc3cc(C(N)=O)ccc3n2CCCCn2c(NC(=O)c3cc(C)n(CC=C)n3)nc3cc(C(N)=O)ccc32)cc1C
Activity [1]: 108.3% | RLU [2]: 0.9 | Activity (THP1-Dual): 108.6% | RLU [3]: 0.8

CCn1nc(C)cc1C(=O)Nc1nc2cc(C(N)=O)ccc2n1CCCCNC(=O)C(C)(C)C
Activity [1]: 58.6% | RLU [2]: 0.4 | Activity (THP1-Dual): 103.7% | RLU [3]: 4.8

Cc1cc(C(=O)Nc2nc3cc(C(N)=O)ccc3n2CCCCNC(=O)OC(C)(C)C)n(C(C)(C)C)n1
Activity [1]: 82.7% | RLU [2]: 1.2 | Activity (THP1-Dual): 83.5% | RLU [3]: 1.1

CCn1nc(C)cc1C(=O)Nc1nc2cc(C(N)=O)ccc2n1CCCCNC(=O)c1ccccc1
Activity [1]: 64.2% | RLU [2]: 0.2 | Activity (THP1-Dual): 27.4% | RLU [3]: 7

NC(=O)c1ccc2c(c1)nc(NC(=O)c1cc3ccccc3o1)n2C[C@@H](O)c1ccccc1
Activity [1]: 105.5% | RLU [2]: 0.8 | Activity (THP1-Dual): 90.2% | RLU [3]: 0.8

CCn1nc(C)cc1C(=O)Nc1nc2cc(C(N)=O)cc(OCCCNC(=O)OC(C)(C)C)c2n1C
Activity [1]: 110% | RLU [2]: 0.8 | Activity (THP1-Dual): 80.1% | RLU [3]: 127

Cn1cc(C(=O)Nc2nc3cc(C(N)=O)ccc3n2C[C@@H](O)c2ccccc2)c(C(F)(F)F)n1
Activity [1]: 92.4% | RLU [2]: 1.1 | Activity (THP1-Dual): 89.4% | RLU [3]: 0.8

CCn1nc(C)cc1C(=O)Nc1nc2cc(C(N)=O)ccc2n1CCCCN
Activity [1]: 85.5% | RLU [2]: 1 | Activity (THP1-Dual): 95.2% | RLU [3]: 0.8

CCn1nc(C)cc1C(=O)Nc1nc2cc(C(N)=O)cc(OCCCN)c2n1C
Activity [1]: 110% | RLU [2]: 1 | Activity (THP1-Dual): 88% | RLU [3]: 101

NC(=O)c1ccc2c(c1)nc(NC(=O)c1nn(C3CCCCO3)c3ccccc13)n2C[C@@H](O)c1ccccc1 (stereo partly specified)
Activity [1]: 93.4% | RLU [2]: 0.9 | Activity (THP1-Dual): 95.8% | RLU [3]: 0.4

CCn1nc(C)cc1C(=O)Nc1nc2cc(C(N)=O)ccc2n1CCCCCNC(=O)OC(C)(C)C
Activity [1]: 87% | RLU [2]: 0.6 | Activity (THP1-Dual): 54.9% | RLU [3]: 16.3

CCn1nc(C)cc1C(=O)NCCCOc1cc(C(N)=O)cc2nc(NC(=O)c3cc(C)nn3CC)n(C)c12
Activity [1]: 113% | RLU [2]: 0.9 | Activity (THP1-Dual): 94% | RLU [3]: 99.1

CCn1nc(C)cc1C(=O)Nc1nc2cc(C(N)=O)cc(OC)c2n1CCCCNC(=O)OC(C)(C)C
Activity [1]: 90% | RLU [2]: 0.5 | Activity (THP1-Dual): 72.1% | RLU [3]: 2.7
